Assays:
HCMV = HCMV reproduction and spread in NHDFs, virus titer (TCID/50); type: cell-based, human cytomegalovirus; settings: 1 μM JAK inhibitor (Pyridone 6) vs DMSO
IFNB1 mRNA [1] = assay: IFNB1 mRNA abundance in response to dsDNA in siRNA-treated NHDFs with or without JAK inhibitor (qRT-PCR); type: cell-based, human; settings: NHDFs transfected with dsDNA, JAK inhibitor (Pyridone 6) vs DMSO (FIG. 5A)
cellular m^6A effectors = assay: HCMV-induced accumulation of cellular m^6A effector proteins in NHDFs (immunoblotting); type: cell-based, human; settings: NHDFs infected with HCMV (MOI=3); PP242 25 μM vs DMSO (FIG. 1E)
IFNB1 mRNA [2] = assay: dsDNA-induced IFNB1 mRNA accumulation in primary human fibroblasts (RT-PCR), Rhein treatment; type: cell-based; settings: primary human fibroblasts transfected with dsDNA, measured after 9 h; Rhein added 24 h prior to or at time of transfection; vs DMSO vehicle (FIG. 16)

`CC(C)(C)c1nc2c3cc[nH]c(=O)c3c3cc(F)ccc3c2[nH]1` [JAK inhibitor, Pyridone 6] was tested, and the “increase of HCMV reproduction in control siRNA-treated cultures” value (HCMV; MOI=0.05, 7 d (FIG. 2D)) was “less than 10 fold”, the “HCMV reproduction in METTL14 siRNA-treated cultures” value (HCMV; MOI=0.05, 7 d, compared to control siRNA levels (FIG. 2D)) was “to a large extent restored HCMV reproduction” and the “kinetics of IFNB1 mRNA accumulation” value (IFNB1 mRNA [1]) was “faster”.

In the case of `CC(C)n1nc(-c2cc3cc(O)ccc3[nH]2)c2c(N)ncnc21` [PP242], the “HCMV-induced increase in cellular m^6A effectors” value (cellular m^6A effectors) is reported as “repressed”.

`O=C(O)c1cc(O)c2c(c1)C(=O)c1cccc(O)c1C2=O` [Rhein] was tested, and the “IFNB1 mRNA production” value (IFNB1 mRNA [2]) was “dose-dependent inhibition of IFNB1 mRNA production”.

— patent US20210164992A1, “COMPOSITIONS AND METHODS RELATED TO INNATE RESPONSE TO DNA AND REGULATION OF INTERFERON-BETA” (priority 2018, published 2021)
